# pIC50, pKi: −log10 of the molar value. Active and inactive are the calls of the source. No cut-off for these calls is given here.
# Experiments:
# [1] = target: T1, Lysine-specific histone demethylase 1A (Homo sapiens, UniProt O60341); assay: Inhibition of LSD1 (unknown origin)
# [2] = target: T1, Lysine-specific histone demethylase 1A
# Description: Inhibition of LSD1 (unknown origin) by fluorescence assay
# [3] = system: MDA-MB-231; assay: Induction of apoptosis in human MDA-MB-231 cells transfected with LSD1 siRNA assessed as increase in BAX/Bcl-2 protein ratio at 8 uM after 24 hrs by Western blot analysis; assay type: functional, cell-based
# [4] = system: MDA-MB-231; assay: Induction of apoptosis in human MDA-MB-231 cells transfected with LSD1 siRNA assessed as chromatin condensation at 8 uM after 24 hrs by Hoechst 33342 staining-based confocal laser scanning microscopic analysis; assay type: functional, cell-based
# [5] = target: T1, Lysine-specific histone demethylase 1A; assay: Inhibition of LSD1 in human MDA-MB-231 cells assessed as increase in H3K9me2 methylation by Western blot analysis; assay type: cell-based
# [6] = system: MDA-MB-231; assay: Induction of apoptosis in human MDA-MB-231 cells transfected with LSD1 siRNA assessed as necrosis cells level at 8 uM after 24 hrs by Annexin V-FITC/propidium iodide staining-based flow cytometric analysis relative to control; assay type: functional
# [7] = system: MDA-MB-231; assay: Induction of apoptosis in human MDA-MB-231 cells transfected with LSD1 siRNA assessed as increase in cleaved caspase-9 level at 8 uM after 24 hrs by Western blot analysis; assay type: functional, cell-based
# [8] = system: MDA-MB-231; assay: Induction of apoptosis in human MDA-MB-231 cells assessed as increase in BAX/Bcl-2 protein ratio at 8 uM after 24 hrs by Western blot analysis; assay type: functional, cell-based
# [9] = target: T1, Lysine-specific histone demethylase 1A; assay: Inhibition of LSD1 in human MDA-MB-231 cells assessed as increase in H3K4me1 methylation by Western blot analysis; assay type: cell-based
# [10] = system: MDA-MB-231; assay: Induction of apoptosis in human MDA-MB-231 cells assessed as loss of mitochondrial membrane potential at 8 uM after 24 hrs by JC-1 staining-based flow cytometric analysis; assay type: functional, cell-based
# [11] = target: Lysine-specific demethylase 5A (Homo sapiens) (UniProt P29375); assay: Inhibition of JARID1 in human MDA-MB-231 cells assessed as effect on H3K4me3 methylation by Western blot analysis; assay type: cell-based
# Chain of Lysine-specific demethylase 5A (Homo sapiens) (P29375 whole entry): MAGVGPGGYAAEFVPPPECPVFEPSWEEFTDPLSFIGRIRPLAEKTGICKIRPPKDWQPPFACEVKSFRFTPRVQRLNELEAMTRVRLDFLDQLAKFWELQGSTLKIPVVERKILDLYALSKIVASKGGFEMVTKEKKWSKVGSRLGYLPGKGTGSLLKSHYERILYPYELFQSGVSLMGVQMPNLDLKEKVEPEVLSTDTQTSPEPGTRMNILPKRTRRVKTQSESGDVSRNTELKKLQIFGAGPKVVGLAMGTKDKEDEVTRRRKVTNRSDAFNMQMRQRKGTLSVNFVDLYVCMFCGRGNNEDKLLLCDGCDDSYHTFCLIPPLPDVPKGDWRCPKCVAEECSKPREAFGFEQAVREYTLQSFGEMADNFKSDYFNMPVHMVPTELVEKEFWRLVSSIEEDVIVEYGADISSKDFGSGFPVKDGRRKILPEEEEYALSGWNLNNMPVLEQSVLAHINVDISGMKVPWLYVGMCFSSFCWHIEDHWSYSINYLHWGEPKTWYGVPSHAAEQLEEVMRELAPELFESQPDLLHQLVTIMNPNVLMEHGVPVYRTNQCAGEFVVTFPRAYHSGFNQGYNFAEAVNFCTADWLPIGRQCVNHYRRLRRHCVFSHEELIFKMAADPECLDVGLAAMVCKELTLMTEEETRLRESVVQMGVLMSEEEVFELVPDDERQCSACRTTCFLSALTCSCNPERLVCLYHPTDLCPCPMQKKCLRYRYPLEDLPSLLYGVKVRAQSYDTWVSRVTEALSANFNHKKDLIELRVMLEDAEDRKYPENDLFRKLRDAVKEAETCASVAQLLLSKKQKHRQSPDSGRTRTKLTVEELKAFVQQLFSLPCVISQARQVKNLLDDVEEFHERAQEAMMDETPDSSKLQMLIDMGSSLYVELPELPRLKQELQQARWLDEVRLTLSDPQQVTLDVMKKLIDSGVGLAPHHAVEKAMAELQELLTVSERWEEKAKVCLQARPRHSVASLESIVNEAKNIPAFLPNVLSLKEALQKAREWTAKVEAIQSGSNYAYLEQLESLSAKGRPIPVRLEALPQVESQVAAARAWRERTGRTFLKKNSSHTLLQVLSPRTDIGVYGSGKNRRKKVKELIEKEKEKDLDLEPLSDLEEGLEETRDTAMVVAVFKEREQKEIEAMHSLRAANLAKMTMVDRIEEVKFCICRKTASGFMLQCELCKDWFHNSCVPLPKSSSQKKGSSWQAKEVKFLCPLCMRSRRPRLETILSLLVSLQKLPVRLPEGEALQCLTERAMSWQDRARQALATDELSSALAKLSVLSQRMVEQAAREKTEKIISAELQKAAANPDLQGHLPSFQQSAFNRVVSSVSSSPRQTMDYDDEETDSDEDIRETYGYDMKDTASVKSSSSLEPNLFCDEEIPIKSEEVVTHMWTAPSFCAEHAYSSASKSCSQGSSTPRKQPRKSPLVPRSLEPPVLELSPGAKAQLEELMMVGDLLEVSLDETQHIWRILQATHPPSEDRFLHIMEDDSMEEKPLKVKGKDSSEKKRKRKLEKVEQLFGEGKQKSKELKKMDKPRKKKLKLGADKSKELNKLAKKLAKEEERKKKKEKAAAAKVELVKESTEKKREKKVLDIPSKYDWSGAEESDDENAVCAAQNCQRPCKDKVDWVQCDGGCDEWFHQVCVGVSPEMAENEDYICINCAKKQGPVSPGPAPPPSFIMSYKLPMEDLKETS
# [12] = system: MDA-MB-231; assay: Antiproliferative activity against human MDA-MB-231 cells transfected with LSD1 siRNA assessed as reduction in EdU incorporation at 8 uM after 24 hrs by Hoechst 33342 staining-based confocal laser scanning microscopic analysis; assay type: functional, cell-based
# [13] = system: MDA-MB-231; assay: Induction of apoptosis in human MDA-MB-231 cells assessed as necrosis cells level at 8 uM after 24 hrs by Annexin V-FITC/propidium iodide staining-based flow cytometric analysis relative to control; assay type: functional
# [14] = system: MDA-MB-231; assay: Induction of apoptosis in human MDA-MB-231 cells transfected with LSD1 siRNA assessed as early apoptosis cells level at 8 uM after 24 hrs by Annexin V-FITC/propidium iodide staining-based flow cytometric analysis relative to control; assay type: functional
# [15] = system: MDA-MB-231; assay: Inhibition of colony formation in human MDA-MB-231 cells transfected with LSD1 siRNA; assay type: functional, cell-based
# [16] = system: MDA-MB-231; assay: Effect on LSD1 protein levels in human MDA-MB-231 cells up to 8 uM by Western blot analysis; assay type: functional, cell-based
# [17] = system: MDA-MB-231; assay: Induction of apoptosis in human MDA-MB-231 cells transfected with LSD1 siRNA assessed as increase in cleaved PARP level at 8 uM after 24 hrs by Western blot analysis; assay type: functional, cell-based
# [18] = system: MDA-MB-231; assay: Induction of apoptosis in human MDA-MB-231 cells transfected with LSD1 siRNA assessed as viable cells level at 8 uM after 24 hrs by Annexin V-FITC/propidium iodide staining-based flow cytometric analysis relative to control; assay type: functional
# [19] = system: MDA-MB-231; assay: Induction of apoptosis in human MDA-MB-231 cells transfected with LSD1 siRNA assessed as increase in cleaved caspase-3 level at 8 uM after 24 hrs by Western blot analysis; assay type: functional, cell-based
# [20] = target: T1, Lysine-specific histone demethylase 1A; assay: Inhibition of LSD1 in human MDA-MB-231 cells assessed as increase in H3K4me2 methylation by Western blot analysis; assay type: cell-based
# [21] = system: MDA-MB-231; assay: Induction of apoptosis in human MDA-MB-231 cells transfected with LSD1 siRNA assessed as late apoptosis level at 8 uM after 24 hrs by Annexin V-FITC/propidium iodide staining-based flow cytometric analysis relative to control; assay type: functional
# [22] = target: T1, Lysine-specific histone demethylase 1A; assay: Competitive inhibition of LSD1 (unknown origin) using H3Kme2 as substrate by Lineweaver-Burk plot analysis
# [23] = system: MDA-MB-231; assay: Induction of apoptosis in human MDA-MB-231 cells assessed as late apoptosis level at 8 uM after 24 hrs by Annexin V-FITC/propidium iodide staining-based flow cytometric analysis relative to control; assay type: functional
# [24] = system: MDA-MB-231; assay: Induction of apoptosis in human MDA-MB-231 cells assessed as viable cells level at 8 uM after 24 hrs by Annexin V-FITC/propidium iodide staining-based flow cytometric analysis relative to control; assay type: functional
# [25] = system: MDA-MB-231; assay: Antiproliferative activity against human MDA-MB-231 cells assessed as reduction in EdU incorporation at 8 uM after 24 hrs by Hoechst 33342 staining-based confocal laser scanning microscopic analysis; assay type: functional, cell-based
# [26] = system: MDA-MB-231; assay: Induction of apoptosis in human MDA-MB-231 cells transfected with LSD1 siRNA assessed as chromatinorrhexis at 8 uM after 24 hrs by Hoechst 33342 staining-based confocal laser scanning microscopic analysis; assay type: functional, cell-based
# [27] = system: MDA-MB-231; assay: Induction of apoptosis in human MDA-MB-231 cells transfected with LSD1 siRNA assessed as increase in cleaved caspase-7 level at 8 uM after 24 hrs by Western blot analysis; assay type: functional, cell-based
# [28] = system: MDA-MB-231; assay: Induction of apoptosis in human MDA-MB-231 cells transfected with LSD1 siRNA assessed as loss of mitochondrial membrane potential at 8 uM after 24 hrs by JC-1 staining-based flow cytometric analysis; assay type: functional, cell-based
# [29] = system: MDA-MB-231; assay: Antiproliferative activity against human MDA-MB-231 cells transfected with LSD1 siRNA after 24 hrs by MTT assay; assay type: functional, cell-based
# [30] = system: MDA-MB-231; assay: Induction of apoptosis in human MDA-MB-231 cells assessed as early apoptosis cells level at 8 uM after 24 hrs by Annexin V-FITC/propidium iodide staining-based flow cytometric analysis relative to control; assay type: functional
# [31] = system: MDA-MB-231; assay: Antiproliferative activity against human MDA-MB-231 cells transfected with NC siRNA after 24 hrs by MTT assay; assay type: functional, cell-based
smiles,measurement,setting,value
COc1c(O[C@@H]2O[C@H](C(=O)O)[C@@H](O)[C@H](O)[C@H]2O)cc(O)c2c(=O)cc(-c3ccccc3)oc12,pIC50,[1],5.53
O=c1c(O)c(-c2ccc(O)c(O)c2)oc2cc(O)cc(O)c12 [QUERCETIN],pIC50,[2],5.90
COc1ccc([C@@H]2CC(=O)c3c(O)cc(O)cc3O2)cc1O [HESPERETIN],pIC50,[2],4.10
C[C@@H]1O[C@@H](OC[C@H]2O[C@@H](Oc3c(-c4ccc(O)c(O)c4)oc4cc(O)cc(O)c4c3=O)[C@H](O)[C@@H](O)[C@@H]2O)[C@H](O)[C@H](O)[C@H]1O [RUTIN],pIC50,[2],5.67
COc1ccc(-c2oc3c(CC=C(C)C)c(O)cc(O)c3c(=O)c2O[C@@H]2O[C@@H](C)[C@H](O)[C@@H](O)[C@H]2O)cc1,pIC50,[2],4.78
O=c1c(O[C@@H]2O[C@H](CO)[C@@H](O)[C@H](O)[C@H]2O)c(-c2ccc(O)c(O)c2)oc2cc(O)cc(O)c12 [ISOQUERCETIN],pIC50,[2],6.02
same,Activity,[3],Active
same,Activity,[4],Active
same,inhibition,[5],Active
same,Activity,[6],1.5%
same,Activity,[7],Active
same,Activity,[8],Active
same,inhibition,[9],Active
same,Activity,[10],Active
same,inhibition,[11],inactive
same,Activity,[12],Active
same,Activity,[13],2.6%
same,Activity,[14],3.5%
same,inhibition,[15],Active
same,Activity,[16],inactive
same,Activity,[17],Active
same,Activity,[18],56.1%
same,Activity,[19],Active
same,inhibition,[20],Active
same,Activity,[21],38.9%
same,pKi,[22],6.00
same,Activity,[23],10.7%
same,Activity,[24],82.6%
same,Activity,[25],Active
same,Activity,[26],Active
same,Activity,[27],Active
same,Activity,[28],Active
same,Activity,[29],Active
same,Activity,[30],1%
same,Activity,[31],Active
O=c1cc(-c2ccccc2)oc2cc(O)c(O)c(O)c12 [BAICALEIN],pIC50,[1],4.90
O=C(O)[C@H]1O[C@@H](Oc2cc3oc(-c4ccccc4)cc(=O)c3c(O)c2O)[C@H](O)[C@@H](O)[C@@H]1O [BAICALIN],pIC50,[1],5.45
COc1ccc([C@@H]2CC(=O)c3c(O)cc(O[C@@H]4O[C@H](CO[C@@H]5O[C@@H](C)[C@H](O)[C@@H](O)[C@H]5O)[C@@H](O)[C@H](O)[C@H]4O)cc3O2)cc1O [HESPERIDIN],pIC50,[2],4.72
COc1ccc(-c2cc(=O)c3c(O)cc(O[C@@H]4O[C@H](CO)[C@@H](O)[C@H](O)[C@H]4O)cc3o2)cc1O,pIC50,[2],4.66
COc1ccc([C@@H]2CC(=O)c3c(O)cc(O[C@@H]4O[C@H](CO)[C@@H](O)[C@H](O)[C@H]4O)cc3O2)cc1O,pIC50,[2],5.32
COc1ccc(-c2oc3c(CC=C(C)C)c(O)cc(O)c3c(=O)c2O)cc1 [ICARITIN],pIC50,[2],4.19
